Source: publication PMC5556071, “ATR inhibition facilitates targeting of leukemia dependence on convergent nucleotide biosynthetic pathways” (Nature Communications, 2017)
“And” between values parts separate entries of the source, which are not always exact repeats. Equal values may be shown once.

System: CEM cells
Assay: Non-targeted LC-MS metabolite profiling: percent [13C6]glucose labeling and relative metabolite levels
Type: cell-based, human
Conditions: CEM cells, 12 h following release from G1 arrest, replicates #1-#6
Source text: To further investigate the functions of dCK and ATR at the G1/S transition in CEM cells, a non-targeted liquid chromatography mass spectrometry (LC-MS) assay was used to determine the utilization of labeled [^13C6]glucose and [^13C9,^15N3]deoxycytidine, the main substrates for de novo and salvage nucleotide biosynthesis, respectively. Of the 166 metabolites identified in CEM cells treated with VE-822 and/or dCKi, 105 metabolites found in all four treatment groups contained glucose-derived ^13C atoms. […] These metabolites included intermediates such as rUTP, rCTP and rCDP in the de novo dCTP biosynthesis (Fig. 1d). […] However, several deoxyribonucleotides, including dCTP, were below the limit of detection of the non-targeted LC-MS approach, raising the concern that the sensitivity of this assay is not sufficient to measure the contribution of the salvage pathway or the ratio of de novo and salvage biosynthesis to these pools. To address this problem, a newly developed targeted MS assay was developed (Fig. 1e and Supplementary Fig. 3). In this assay, samples containing either extracted dNTPs or hydrolyzed DNA from labeled cells are separated by LC for detection by a triple quadrupole mass spectrometer using multiple reaction monitoring (LC-MS/MS-MRM). The first (Q1) and third (Q3) quadrupoles function as mass filters, while the second (Q2) quadrupole serves as a collision chamber (Fig. 1e). For instance, to profile the biosynthetic composition of deoxycytidine (dC) derived from hydrolyzed DNA or dCTP, an intact, protonated dC ion is selected in Q1, followed by fragmentation of the glycosidic bond, which releases protonated cytosine in Q2, that is filtered in Q3 and detected to generate an ion chromatogram. The peak areas for the ion chromatograms of salvage [^13C9,^15N3]dC (red trace), de novo [^13C5]dC (black trace, from [^13C6]glucose) and unlabeled dC (gray trace) (Fig. 1e) are used to determine the relative contributions of the de novo and salvage routes both to dCTP pools and to DNA-incorporated dCTP.
Cells were transferred into RPMI-1640 without glucose and supplemented with 10% dialyzed FBS (Gibco) containing the following labeled substrates: precursors for de novo [U-^13C6]glucose (Sigma-Aldrich, 389374) at 11 mM; precursors for purine salvage [U-^13C10,^15N5]dA (Cambridge Isotopes, CIL 3896), [^15N5]dA (Cambridge Isotopes, NLM-3895) and [^15N5]dG (Cambridge Isotopes, NLM-3899) at 5 µM or as indicated; and precursors for pyrimidine salvage: [U-^13C9,^15N3]dC (Silantes, 124603602) and [U-^13C10,^15N2]dT (Cambridge Isotopes, CNLM-3902) at 5 µM and [^15N2]orotate (Cambridge Isotopes, NLM-1048) at indicated concentrations. The cells were incubated for 12 h or as indicated before sample collection and processing. […]
Non-targeted LC-MS metabolic assays. 1 x 10^6 cells were washed with ice-cold 150 mM ammonium acetate twice before adding 1 mL of ice-cold 80% methanol with 10 nM norvaline as an internal standard. After vigorous vortexing, samples were centrifuged at maximum speed, the aqueous layer was transferred to a glass vial and the metabolites were dried under vacuum. Metabolites were resuspended in 50 μL 70% acetonitrile (ACN) and 5 μL of this solution used for the mass spectrometer-based analysis. The analysis was performed on a Q Exactive (Thermo Scientific) in polarity-switching mode with positive voltage 4.0 kV and negative voltage 4.0 kV. The mass spectrometer was coupled to an UltiMate 3000RSLC (Thermo Scientific) UHPLC system. Mobile phase A was 5 mM ammonium acetate (NH4AcO), pH 9.9, B was acetonitrile and the separation achieved on a Luna […] NH2 100 A column (150 × 2.0 mm, Phenomenex). The flow was 200 μL/min, and the gradient ran from 15% A to 95% A in 18 min, followed by an isocratic step for 9 min and re-equilibration for 7 min. Metabolites were detected and quantified as area under the curve based on retention time and accurate mass (≤ 3 p.p.m.) using the TraceFinder 3.1 (Thermo Scientific). Relative amounts of […]

[1] = metabolite Asp (C00049), listed as V
[2] = metabolite Carnitine (C00318), listed as V
[3] = metabolite G3P (KEGG C00118), listed as V
[4] = metabolite G6P-F6P (KEGG C00668), listed as V
[5] = metabolite GABA (KEGG C00334), listed as V
[6] = metabolite GDP (KEGG C00035), listed as V
[7] = metabolite GMP (KEGG C00144), listed as V
[8] = metabolite GSH (KEGG C00051), listed as V
[9] = metabolite GSSG (KEGG C00127), listed as V
[10] = metabolite GTP (KEGG C00044), listed as V
[11] = metabolite Glc (KEGG C00031), listed as V
[12] = metabolite GlcA (KEGG C00257), listed as V
[13] = metabolite GlcN-6P (KEGG C00352), listed as V
[14] = metabolite GlcNAc-6P (KEGG C00357), listed as V

CNCc1ccc(-c2cc(-c3nc(-c4ccc(S(=O)(=O)C(C)C)cc4)cnc3N)on2)cc1 [VE-822]
Relative level, Asn (metabolite Asn (C00152), listed as V): 1.3 and 1.4 (2×) and 0.9 (3×) | Glucose labeling, Asp [1]: 22.64% and 22.44% and 22.12% and 21.45% and 21.35% and 21.96% | Relative level, Asp [1]: 1.8 and 1.3 and 1.4 and 1.5 and 0.9 and 1.0 | Glucose labeling, C (metabolite C (D07769), listed as V): 0.35% and 0.24% and 0.32% and 0.34% and 0.00758% and 0.36% | Relative level, C (metabolite C, listed as V): 1.9 (2×) and 2.0 and 1.8 and 2.3 and 2.5 | Glucose labeling, Carnitine [2]: 0.0372% and 0.00375% and 0.00443% and 0.00282% and 0.06% and 0.00331% | Relative level, Carnitine [2]: 0.9 and 1.0 (2×) and 0.7 (2×) and 0.8 | Glucose labeling of G3P [3]: 58.87% and 0.0369% (3×) and 100.00% (2×) | Relative level of G3P [3]: 0.952 and 0.6 (2×) and 0.2 and 0.456 | Glucose labeling of G6P-F6P [4]: 88.15% and 86.27% and 90.17% and 83.23% and 85.62% and 81.44% | Relative level of G6P-F6P [4]: 4.7 and 2.5 and 3.5 and 1.9 and 1.1 and 1.0 | Glucose labeling of GABA [5]: 0.05% and 0.04% and 0.0737% (4×) | Relative level of GABA [5]: 0.9 (2×) and 1.0 and 0.4 (2×) and 0.5 | Glucose labeling of GDP [6]: 66.45% and 57.13% and 62.54% and 65.67% and 61.42% and 68.88% | Relative level of GDP [6]: 2.9 and 0.7 and 1.2 and 1.1 and 0.647 and 0.351 | Glucose labeling of GMP [7]: 67.56% and 73.95% and 70.72% and 64.86% and 56.63% and 63.18% | Relative level of GMP [7]: 3.6 and 1.9 (2×) and 2.2 and 0.527 and 0.431 | Glucose labeling of GSH [8]: 22.37% and 21.90% and 25.59% and 18.14% and 18.31% and 18.93% | Relative level of GSH [8]: 1.4 and 1.1 and 0.9 and 0.6 and 0.557 and 0.5 | Glucose labeling of GSSG [9]: 41.97% and 38.91% and 39.41% and 36.66% and 34.27% and 31.20% | Relative level of GSSG [9]: 1.0 (2×) and 0.9 and 0.7 and 0.553 and 0.533 | Glucose labeling of GTP [10]: 66.00% and 75.98% and 68.76% and 65.13% and 72.51% and 69.15% | Relative level of GTP [10]: 1.6 and 0.4 (2×) and 0.8 and 0.9 and 0.378 | Glucose labeling of Glc [11]: 85.14% and 89.26% and 81.87% and 76.15% and 74.50% and 90.17% | Relative level of Glc [11]: 1.6 and 2.4 and 1.4 and 0.9 (2×) and 3.6 | Glucose labeling of GlcA [12]: 10.98% and 10.19% and 12.71% and 10.94% and 11.47% and 12.23% | Relative level of GlcA [12]: 0.9 and 0.6 and 0.566 and 0.5 and 0.3 (2×) | Glucose labeling of GlcN (metabolite GlcN (KEGG C00329)): 0.18% | Relative level of GlcN (metabolite GlcN (KEGG C00329), listed as V): 0.9 and 1.4 and 1.6 and 1.1 and 0.8 and 1.7 | Glucose labeling of GlcN-6P [13]: 6.56% and 5.43% and 4.48% and 7.20% and 4.32% and 4.29% | Relative level of GlcN-6P [13]: 0.65 and 0.8 and 0.6 and 0.7 (2×) and 0.653 | Glucose labeling of GlcNAc-6P [14]: 39.94% and 9.75% and 47.59% and 56.84% and 49.88% and 50.30% | Relative level of GlcNAc-6P [14]: 0.8 and 0.37 and 0.9 and 1.0 and 0.533 and 0.4
